Assay results as given in ChEMBL document CHEMBL4196200 (J Med Chem, 2018).
Converted amounts (≈) assume the structure as drawn. The source made the active and inactive calls. The rule behind the calls is not given here.

Experiments:
[1] = tested on: Mus musculus; assay: Improvement in social interaction in Oprm1-/- mouse model of autism spectrum disorders assessed as restoration of number of nose contacts at 20 mg/kg, ip pre-treated before open-field test for 10 mins; type: functional, organism-based
[2] = target: T1, Vasopressin V1b receptor (Homo sapiens, UniProt P47901); assay: Antagonist activity at human V1b receptor expressed in HEK293FT cells assessed as inhibition of AVP-induced response incubated for 30 mins by beta-arrestin recruitment assay; type: functional, cell-based
T1 sequence (P47901 whole entry): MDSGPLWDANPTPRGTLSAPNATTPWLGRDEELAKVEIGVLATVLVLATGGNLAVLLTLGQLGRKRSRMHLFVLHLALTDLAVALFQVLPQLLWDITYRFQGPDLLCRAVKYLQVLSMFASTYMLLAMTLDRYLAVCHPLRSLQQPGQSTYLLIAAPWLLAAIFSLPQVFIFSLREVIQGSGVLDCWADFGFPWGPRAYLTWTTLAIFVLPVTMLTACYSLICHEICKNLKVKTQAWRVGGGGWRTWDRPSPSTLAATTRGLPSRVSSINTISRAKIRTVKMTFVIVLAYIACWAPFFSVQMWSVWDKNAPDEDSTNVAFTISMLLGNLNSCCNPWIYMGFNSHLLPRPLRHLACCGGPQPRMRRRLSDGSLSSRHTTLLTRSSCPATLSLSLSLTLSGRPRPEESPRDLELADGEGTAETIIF

[3] = tested on: Mus musculus; assay: Effect on social interaction in Oprm1+/+ mouse model of autism spectrum disorders assessed as mean duration of nose contacts at 10 mg/kg, ip pre-treated before open-field test for 10 mins; type: ADME, organism-based; details: in vivo
[4] = target: T2, Vasopressin V2 receptor (Homo sapiens, UniProt P30518); assay: Agonist activity at human V2 receptor expressed in HEK293FT cells assessed as stimulation of calcium release by Aequorin based assay relative to AVP; type: functional, cell-based
[5] = target: T3, Oxytocin receptor (Mus musculus, UniProt P97926); assay: Agonist activity at mouse OTR receptor expressed in HEK293FT cells assessed as stimulation of calcium release by Aequorin based assay; type: functional, cell-based
T3 sequence (P97926 whole entry): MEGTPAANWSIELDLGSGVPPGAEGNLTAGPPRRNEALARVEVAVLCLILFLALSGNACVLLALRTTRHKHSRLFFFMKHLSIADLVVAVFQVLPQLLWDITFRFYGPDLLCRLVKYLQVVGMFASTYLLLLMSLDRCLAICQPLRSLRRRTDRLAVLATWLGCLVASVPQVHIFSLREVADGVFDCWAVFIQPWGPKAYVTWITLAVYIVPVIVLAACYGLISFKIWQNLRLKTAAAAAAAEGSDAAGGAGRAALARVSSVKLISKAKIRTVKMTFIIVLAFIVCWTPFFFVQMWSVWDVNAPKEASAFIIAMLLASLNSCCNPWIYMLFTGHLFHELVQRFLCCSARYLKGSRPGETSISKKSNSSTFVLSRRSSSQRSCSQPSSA

[6] = tested on: Mus musculus; assay: Effect on social interaction in Oprm1+/+ mouse model of autism spectrum disorders assessed as time spent in nose contacts at 10 mg/kg, ip pre-treated before open-field test for 10 mins; type: ADME, organism-based; details: in vivo
[7] = Thermodynamic solubility in pH 7.4 buffer; type: physicochemical; details: read-out: Therm_solubility
[8] = tested on: Mus musculus; assay: Effect on social interaction in Oprm1+/+ mouse model of autism spectrum disorders assessed as grooming episodes occurring after social contact at 10 mg/kg, ip pre-treated before open-field test for 10 mins; type: ADME, organism-based; details: in vivo
[9] = tested on: Mus musculus; assay: Improvement in social interaction in Oprm1-/- mouse model of autism spectrum disorders assessed as restoration of number of following episodes at 20 mg/kg, ip pre-treated before open-field test for 10 mins; type: functional, organism-based
[10] = target: T4, Vasopressin V1a receptor (Homo sapiens, UniProt P37288); assay: Displacement of DY647 from SNAP-tagged V1A receptor (unknown origin) expressed in HEK293 cells by TR-FRET assay; type: cell-based
[11] = tested on: Mus musculus; assay: Improvement in social interaction in Oprm1-/- mouse model of autism spectrum disorders assessed as restoration of time spent in nose contacts at 20 mg/kg, ip pre-treated before open-field test for 10 mins; type: functional, organism-based
[12] = target: T5, Oxytocin receptor (Homo sapiens, UniProt P30559); assay: Displacement of DY647 from SNAP-tagged OTR receptor (unknown origin) expressed in HEK293 cells by TR-FRET assay; type: cell-based
T5 sequence (P30559 whole entry): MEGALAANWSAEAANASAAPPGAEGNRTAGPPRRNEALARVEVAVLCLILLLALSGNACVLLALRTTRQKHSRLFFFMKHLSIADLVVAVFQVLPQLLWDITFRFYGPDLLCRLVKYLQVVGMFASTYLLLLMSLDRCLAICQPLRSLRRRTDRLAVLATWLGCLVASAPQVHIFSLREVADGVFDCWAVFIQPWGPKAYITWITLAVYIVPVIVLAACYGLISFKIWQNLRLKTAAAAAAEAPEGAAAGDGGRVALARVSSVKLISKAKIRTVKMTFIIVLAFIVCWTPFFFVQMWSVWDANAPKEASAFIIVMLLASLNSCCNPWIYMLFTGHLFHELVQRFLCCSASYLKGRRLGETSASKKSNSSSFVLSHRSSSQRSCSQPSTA

[13] = target: T2, Vasopressin V2 receptor; assay: Agonist activity at human V2 receptor expressed in HEK293FT cells incubated for 30 mins by beta-arrestin recruitment assay relative to AVP; type: functional, cell-based
[14] = target: T6, Oxytocin receptor (Homo sapiens) (UniProt P30559); assay: Agonist activity at human OTR expressed in HEK cells assessed as increase in intracellular calcium flux incubated for 45 mins by Indo1-AM dye based fluorescence assay relative to OT; type: functional, cell-based
T6 sequence (whole entry): T5 sequence (P30559 whole entry)

[15] = tested on: Mus musculus; assay: Improvement in social interaction in Oprm1-/- mouse model of autism spectrum disorders assessed as restoration of number of following episodes at 10 mg/kg, ip pre-treated before open-field test for 10 mins; type: functional, organism-based
[16] = target: T4, Vasopressin V1a receptor; assay: Antagonist activity at human V1A receptor expressed in HEK cells assessed as inhibition of AVP-induced intracellular calcium flux incubated for 45 mins by Indo1-AM dye based fluorescence assay relative to AVP; type: functional, cell-based
[17] = target: T5, Oxytocin receptor; assay: Agonist activity at human OTR receptor expressed in HEK293FT cells incubated for 30 mins by beta-arrestin recruitment assay; type: functional, cell-based
[18] = target: T2, Vasopressin V2 receptor; assay: Agonist activity at human V2 receptor expressed in HEK293FT cells assessed as stimulation of calcium release by Aequorin based assay; type: functional, cell-based
[19] = tested on: Mus musculus; assay: Improvement in social interaction in Oprm1-/- mouse model of autism spectrum disorders assessed as restoration of number of nose contacts at 10 mg/kg, ip pre-treated before open-field test for 10 mins; type: functional, organism-based
[20] = target: T4, Vasopressin V1a receptor; assay: Antagonist activity at human V1a receptor expressed in HEK293FT cells assessed as inhibition of AVP-induced response incubated for 30 mins by beta-arrestin recruitment assay; type: functional, cell-based
[21] = target: T4, Vasopressin V1a receptor; assay: Antagonist activity at human V1a receptor expressed in HEK293FT cells assessed as inhibition of AVP-induced calcium release by Aequorin based assay; type: functional, cell-based
[22] = tested on: Mus musculus; assay: Improvement in social interaction in Oprm1-/- mouse model of autism spectrum disorders assessed as suppression of grooming episodes occurring after social contact at 10 mg/kg, ip pre-treated before open-field test for 10 mins; type: functional, organism-based
[23] = target: T1, Vasopressin V1b receptor
Description: Agonist activity at human V1b receptor expressed in HEK293FT cells assessed as stimulation of calcium release by Aequorin based assay

[24] = Lipophilicity, log D of the compound; type: physicochemical; details: octanol/water

T2 sequence (P30518 whole entry): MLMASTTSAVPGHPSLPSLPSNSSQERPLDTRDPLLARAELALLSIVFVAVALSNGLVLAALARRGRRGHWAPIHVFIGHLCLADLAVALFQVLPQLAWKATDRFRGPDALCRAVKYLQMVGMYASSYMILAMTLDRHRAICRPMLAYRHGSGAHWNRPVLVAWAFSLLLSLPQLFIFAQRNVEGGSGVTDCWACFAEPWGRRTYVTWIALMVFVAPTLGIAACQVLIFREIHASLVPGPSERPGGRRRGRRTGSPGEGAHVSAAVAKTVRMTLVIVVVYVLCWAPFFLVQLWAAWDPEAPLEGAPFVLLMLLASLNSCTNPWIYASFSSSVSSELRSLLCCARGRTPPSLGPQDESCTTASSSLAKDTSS
T4 sequence (P37288 whole entry): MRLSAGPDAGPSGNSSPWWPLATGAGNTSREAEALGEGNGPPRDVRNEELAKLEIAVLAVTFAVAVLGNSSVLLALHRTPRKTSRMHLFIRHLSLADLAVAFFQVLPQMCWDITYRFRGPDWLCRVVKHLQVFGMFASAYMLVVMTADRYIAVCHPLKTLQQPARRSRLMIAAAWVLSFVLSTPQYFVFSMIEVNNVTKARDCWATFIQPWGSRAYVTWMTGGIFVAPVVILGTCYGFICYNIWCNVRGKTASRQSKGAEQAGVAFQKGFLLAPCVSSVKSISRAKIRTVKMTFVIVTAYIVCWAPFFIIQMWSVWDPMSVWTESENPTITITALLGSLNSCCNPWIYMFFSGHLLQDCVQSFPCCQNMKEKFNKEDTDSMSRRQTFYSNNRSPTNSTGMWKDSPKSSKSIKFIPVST

IC50 [2]: Not Active | Emax [4]: 101% | EC50 [5]: 18 nM | solubility thermodynamic [7]: 680 µM (≈ 362 µg/mL) | Ki [10]: 1250 nM | Ki [12]: 226 nM | Emax [13]: 97% | Emax [14]: 52% | IC50 [16]: 100 nM | EC50 [17]: 62 nM | EC50 [18]: 41 nM | IC50 [20]: 2200 nM | IC50 [21]: 5900 nM | EC50 [23]: Not Active | logD [24]: 2
SMILES: Cc1cc(C(=O)N2Cc3cnn(C)c3Nc3ccccc32)ccc1CNC(=O)N1CCC[C@H]1C(=S)N(C)C
Activity [1]: inactive | Activity [3]: Non-Toxic | Activity [6]: Non-Toxic | Activity [8]: Toxic | Activity [9]: inactive | Activity [11]: inactive | Activity [15]: Active | Activity [19]: Active | Activity [22]: Active
